≈ marks a conversion by molar mass, not a printed value.
Tests used:
[1] = tested on: E. coli MG1655; experiment: Minimal inhibitory concentration (MIC), micro-dilution; format: cell-based, Escherichia coli; details: inoculum 2×10^8 cfu/ml, 24 h, liquid MH medium, 37°C
Description: E. coli K-12 MG1655 was used for all experiments, grown in liquid Mueller-Hilton (MH) agar or agarose, unless otherwise indicated. All experiments were carried out at 37°C.
MICs were determined according to CLSI recommendations by a micro-dilution method with the exception that the inoculum size that was adjusted to 2×10^8 cfu/ml from a regrowth of overnight cultures to be consistent with the mutagenesis experiments. […] Polypropylene non-binding plates (Th. Geyer, Germany) were used for all experiments.

[2] = tested on: E. coli MG1655; experiment: microbe, parasite or virus in culture; format: cell-based, Escherichia coli; details: 4 hours, 50% reduction of CFUs vs control, Mueller Hinton Broth, 37°C, five replicates, repeated twice
Description: The MIC50s for all antimicrobials were determined by inoculating strains grown to mid-log phase into the wells of a 96-microwell plate. Approximately 10^2 cells from overnight cultures were inoculated into tubes containing 10 ml of Mueller Hinton Broth medium, and the tubes were incubated at 37°C with strong shaking until the mid-log phase of growth (approximately 10^8 cells/ml). […] The plates were incubated at 37°C for 4 h with continuous shaking in a plate reader (Synergy 2, BioTeK). After four hours, aliquots from wells with OD^600 readings ranging from 10 to 90% values in comparison with the control, were serially diluted in sterile 0.9% NaCl, and incubated during 1 hour to allow the resolution of filaments as consequence of SOS activation, if any. Bacterial suspensions were plated in Mueller Hinton Broth agar plates to estimate the viability as colony forming units (CFUs). Five replicates per concentration were prepared and the experiments were repeated twice.

[3] = tested on: E. coli MG1655; experiment: Killing by AMPs under thiourea ROS scavenger; format: cell-based, Escherichia coli; details: thiourea 100 mM (Figure S3)
Description: SOS and rpoS mediated mutagenesis are well supported by empirical work, and it was recently proposed that antibiotics promote ROS formation and kill bacterial by lethal induction of hydroxyl-mediated DNA damage. Here we explored this new and debated proposition also for AMPs. We assessed AMP killing curves in E. coli MG1655 in the presence of the ROS scavenger thiourea (100 mM) and used Kanamycin as positive control.
Kanamycin was used a positive control. The procedure was the same as described in this work elsewhere for MIC50 (Fig. S3).

[4] = tested on: E. coli stress response genes (strain MG1655); experiment: Relative gene expression of stress response genes by quantitative real-time PCR; format: cell-based, Escherichia coli; details: qPCR, 20 minutes exposure vs non-treated bacteria; for Result, cpxR: key: NDE: non-differentially expressed, p-value ≥ 0,05; UP: upregulated, p-value ≤ 0,05; DOWN: downregulated, p-value ≤ 0,05; for Result, oxyR: key: NDE: non-differentially expressed, p-value ≥ 0,05; UP: upregulated, p-value ≤ 0,05; DOWN: downregulated, p-value ≤ 0,05; for Result, rpoE: key: NDE: non-differentially expressed, p-value ≥ 0,05; UP: upregulated, p-value ≤ 0,05; DOWN: downregulated, p-value ≤ 0,05
Description: Preparation of each of the six treatments and the control samples was carried out by two operators on three consecutive days, thereby comprising three biological replicates for each of the six experimental and one control groups. To obtain the starting material for the experiment, a fresh bacterial culture was grown from a glycerol stock on Mueller-Hinton (MH) agar plates at 37°C for 18–24 hours. One well-isolated colony per biological replicate was used to inoculate 2 ml of liquid MH (Sigma) in a 10 ml sterile polypropylene tube and incubated at 37°C for 16 hours with mild shaking. The overnight (ON) culture was then diluted 1∶100 in MH, subdivided into seven 10 ml aliquots and incubated in 50 ml-Falcon tubes at 37°C for 2.5 hours at 220 rpm. When the OD600 of bacterial cultures reached 0.5–0.7, respective antibiotics and AMPs were added to a concentration to match with those used in the mutagenesis experiments. These bacterial cultures were incubated for 20 minutes at 37°C with gentle shaking. Two ml of bacterial cultures from each treatment and the control were collected, immediately centrifuged at 10000 g for 2 minutes and the supernatant was removed to stop the treatment. The bacterial pellet was then resuspended in 1 ml MH, followed by an addition of 1 ml of RNAprotect Bacteria Reagent (Qiagen), 5 minutes incubation and centrifugation at 10000 g for 2 minutes at room temperature. The supernatant was discarded and the bacterial pellet was immediately frozen and stored at −80°C until RNA extraction.
Total RNA was isolated using RNeasy kit (Qiagen) according to the manufacturer's instructions and eluted in 50 µl of RNase-free water. The nucleic acid yield and purity were determined by measuring the optical density at A260/280 using a Nanodrop spectrophotometer (Thermo Scientific). RNA samples were treated with TURBO DNase (Life Technologies). Briefly, ten µg of RNA were used in a total volume of 500 µl containing 20 units of TURBO DNase, incubated for 30 minutes at 37°C, immediately followed by RNeasy (Qiagen) cleanup and elution in 30 µl of RNase-free water. Following DNase treatment, RNA integrity was assessed using Agilent RNA 6000 Nano kit and 2100 Bioanalyzer instrument (both Agilent Technologies).
High-Capacity cDNA Reverse Transcription Kit with RNase Inhibitor (Applied Biosystems) was used for cDNA synthesis. Initially, to ensure linear conversion of the transcripts, the dynamic range of reverse transcription reaction was tested by performing a standard curve with cDNA, synthesised using various input amounts of pooled RNA. Total RNA (250 ng per reaction) and random primers were used for cDNA synthesis. To obtain sufficient amount of cDNA, several batches of 20 µl RT reactions were pooled, diluted 50-fold with RNase-free water and stored in single-use aliquots at −80°C until further use. All 21 samples were tested for presence of contaminating genomic DNA by running the mdoG assay with cDNA and the respective no reverse transcription (−RT) controls.
Escherichia coli strain K-12 substrain MG1655 complete genome (accession U00096) sequence was downloaded from NCBI database (www.ncbi.nlm.nih.gov) and used for primer design. Target sequence accession number, location of the amplicon, amplicon length and primer sequences for each assay can be found in table S2. Primers were designed using Primer Express software (Applied Biosystems) and optimized for annealing temperature of 60°C. Each primer pair and amplicon were checked for secondary structure formation using Oligo Tool (Integrated DNA technologies, http://eu.idtdna.com/analyzer/Applications/OligoAnalyzer/).

[5] = tested on: E. coli stress response genes; details: kanamycin 5 μg/ml, ref Kohanski,2007, cited from earlier work
[6] = normalized to arcA, mdoG, tus, Pexiganan 16, Melittin 16, Kanamycin 16, Ciprofloxacin 0.5, Lysozyme 128, Ampicillin 32 μg/ml, three biological replicates

**Q.** Which results are given for `NC[C@H]1O[C@H](O[C@H]2[C@H](O)[C@@H](O[C@H]3O[C@H](CO)[C@@H](O)[C@H](N)[C@H]3O)[C@H](N)C[C@@H]2N)[C@H](O)[C@@H](O)[C@@H]1O` [Kanamycin]?
**A.** MIC [1]: 2 µg/mL (≈ 4.13 µM); MIC50 [2]: 1.6 µg/mL; killing / sensitivity in the presence of the ROS scavenger thiourea [3]: reduced sensitivity; Result, cpxA ([4]; REST 2009 randomisation test): NDE; Result, cpxR ([4]; REST 2009 randomisation test): NDE; Result, dinB ([4]; REST 2009 randomisation test): NDE; Result, lexA ([4]; REST 2009 randomisation test): NDE; Result, marR ([4]; REST 2009 randomisation test): NDE; Result, oxyR ([4]; REST 2009 randomisation test): NDE; Result, phoP ([4]; REST 2009 randomisation test): NDE; Result, phoQ ([4]; REST 2009 randomisation test): NDE; Result, recA ([4]; REST 2009 randomisation test): NDE; Result, rpoE ([4]; REST 2009 randomisation test): NDE; Result, rpoS ([4]; REST 2009 randomisation test): NDE; Result, umuC ([4]; REST 2009 randomisation test): NDE; Expression, cpxA (Envelope stress) [4, 6]: 1.069; Expression, cpxR (Envelope stress) [4, 6]: 0.812; Expression, dinB (SOS response) [4, 6]: 1.083; Expression, lexA (SOS response) [4, 6]: 1.302; Expression, marR (Independent multiple antibiotic resistance) [4, 6]: 1.073; Expression, oxyR (Oxidative stress) [4, 6]: 1.333; Expression, phoP (Envelope stress) [4, 6]: 0.94; Expression, phoQ (Envelope stress) [4, 6]: 0.769; Expression, recA (SOS response) [4, 6]: 1.331; Expression, rpoE (Envelope stress) [4, 6]: 1.236; Expression, rpoS (Sigma S response) [4, 6]: 0.967; Expression, umuC (SOS response) [4, 6]: 0.974; expression, rpoE (microarray database) ([5]; 30 min): 2.118; expression, marR (microarray database) ([5]; 60 min): 8.767; expression, phoP (microarray database) ([5]; 60 min): 2.411; expression, lexA (microarray database) ([5]; 120 min): 3.48; expression, oxyR (microarray database) ([5]; 120 min): 3.362
